Patent publication US12173042B2, “Methods of treating cancers with CT45 targeted therapies” (The University of Chicago, priority 2016, dated 2024)

What was measured:
OVCAR5-V5-CT45 tumors = test: Subcutaneous tumor growth in nude mice, CT45 expressing tumors; type: in vivo, athymic nude mice; conditions: carboplatin 20 mg/kg tail vein 1 time/week, vs untreated CT45 tumors
Procedure: (§1) 5 million OVCAR5-V5 or OVCAR5-V5-CT45 cells suspended in a 1:2 solution of serum-free media to growth-factor reduced matrigel were injected subcutaneously into the right and left flanks respectively, of 8 week old female athymic nude mice. After 5 days, treatment was administered through the tail vein 1 time/week at 20 mg/kg. Sterile water served as the control treatment. Tumor growth was measured every 2-3 days using calipers until the tumor neared 1 cm3 and was measured daily. Once the tumor reached 1 cm3 the mouse was sacrificed. 4 mice were removed from the study early due to ulcerations of the skin. All experiments were approved by the Institutional Animal Care and Use Committee of the University of Chicago.
as §1, with “Five million” for “5 million”, “8 weeks” for “8 week”, “1 cm^3” for “1 cm3”, “skin. […]” for “skin. All experiments were approved by the Institutional Animal Care and Use Committee of the University of Chicago.”

[1] = tested on: chromatin of OVCAR5-V5-CT45 and OVCAR5-V5 cells; test: Micrococcal nuclease (MNase) assay; type: cell-based, human; conditions: after five days, vector control and CT45 overexpressing cell line
Procedure: Chromatin relaxation was assayed using the micrococcal nuclease (MNase) assay as previously described, with a few modifications. Briefly, nuclei from 1E6 cells were extracted with 300 μl ice-cold lysis buffer (10 mM Tris-HCl (pH 7.5), 10 mM NaCl, 3 mM MgCl2 and 0.4% IGPAL-CA-630) on ice for 5 min. After centrifugation (2,000 g for 5 min at 4° C.), nuclei were washed two times in lysis buffer and one time in 500 μl digestion buffer (0.32M sucrose, 50 mM Tris-HCl (pH7.5), 4 mM MgCl2, 1 mM CaCl2). Nuclei were then digested in digestion buffer with 50 gel units MNase (NEB) for 9 min at 27° C. in a final volume of 100 μl. The reaction was stopped by adding a final concentration of 1% SDS and 15 mM EGTA. Genomic DNA was purified and separated by gel electrophoresis (1.2% agarose).

59M cells = test: Colony assay of carboplatin treated 59M cells with siRNA; type: cell-based, human; conditions: cells deficient in PP4 or expressing CT45
From the text: FIG. 23. Cell deficient in PP4 or expressing the endogenous PP4 inhibitor CT45 are hypersensitive to carboplatin treatment. Shown are colony assay results of carboplatin treated 59M cells transfected with a control siRNA, PP4C siRNA or CT45 siRNA. Colony numbers are normalized to untreated cells of each siRNA.

In the case of N.N.O=C([O-])C1(C(=O)[O-])CCC1.[Pt+2] [carboplatin], the tumor growth (OVCAR5-V5-CT45 tumors) is reported as “significantly reduced growth”, the chromatin relaxation [1] is reported as “induced global chromatin relaxation” and the “sensitivity of colony formation to carboplatin” value (59M cells) is reported as “hypersensitive”.
